According to patent US20060166900A1, “Salt of morphine-6-glucuronide” (CeNeS Limited, priority 2002, published 2006):

Columns and labels:
Assay type in all cases: physicochemical
[1] = Visual appearance on storage (Example 3)
Procedure: (§1) Each test material was stored between 2-8*C prior to placing on stability. Each material was sub-divided into 900 mg aliquots, transferred to brown opaque HDPE plastic bottles and flushed with Argon prior to sealing. Sufficient samples were provided for each time point as well as spares for each storage condition. The samples were placed in appropriate incubators previously commissioned at storage conditions 25° C./60% RH, 40° C./75% RH and 60° C.
The samples were stored for analysis according to the following table: […]

[2] = Water content by Karl Fisher analysis on storage (Example 3)
Procedure: Water content (% w/w) by Karl Fisher analysis
as §1
Water Content by Karl Fisher Analysis
Water content was determined in duplicate on an aliquot of equilibrated material (approximately 100 mg) using a Tritrino 720 KFS Titrator.

[3] = Colour of solution by visible spectrophotometry on storage (Example 3); settings: 5% w/v solution in water
Procedure: Colour of solution by UV spectrophotometry.
as §1
Colour by Visible Spectrophotometry
A 5% w/v solution of test material was prepared in water and the absorbance measured at 420 nm in a 1 cm silica cell using a Unicam UV4 Visible/UV spectrophotometer.

[4] = Stability indicating HPLC assay and related substances on storage (Example 3)
Procedure: Assay (% w/w) and related substances determination
as §1
Testing Procedures Test for Identity Content and Impurities
Testing was performed in duplicate (2×25 mg) in accordance with a stability indicating HPLC assay method. The assay results were reported as M6G as is, M6G as the anhydrous, solvent free material and the anhydrous solvent free material corrected for the salt form using the relevant conversion factor.

CN1CCC23c4c5ccc(O)c4OC2C(OC2OC(C(=O)O)C(O)C(O)C2O)C=CC3C1C5.CN1CCC23c4c5ccc(O)c4OC2C(OC2OC(C(=O)O)C(O)C(O)C2O)C=CC3C1C5.O=C(O)C=CC(=O)O (stereo not shown) [Morphine-6-glucuronide maleate]
Appearance ([1]; 1 month, 25° C./60% RH): White crystalline powder
Appearance ([1]; 1 month, 40° C./75% RH): Pale yellow crystalline powder
Appearance ([1]; 1 month, 60° C.): Yellow crystalline powder
Appearance ([1]; 3 months, 25° C./60% RH): Pale yellow crystalline powder
Appearance ([1]; 3 months, 40° C./75% RH): Yellow crystalline powder
Appearance ([1]; Initial): White crystalline powder
Moisture ([2]; 1 month, 25° C./60% RH): 7.53 % w/w
Moisture ([2]; 1 month, 40° C./75% RH): 7.60 % w/w
Moisture ([2]; 1 month, 60° C.): 5.01 % w/w
Moisture ([2]; 3 months, 25° C./60% RH): 7.14 % w/w
Moisture ([2]; 3 months, 40° C./75% RH): 9.24 % w/w
Moisture ([2]; Initial): 6.14 % w/w
Colour ([3]; 1 month, 25° C./60% RH): 0.084 Abs@420 nm
Colour ([3]; 1 month, 40° C./75% RH): 0.297 Abs@420 nm
Colour ([3]; 1 month, 60° C.): 0.739 Abs@420 nm
Colour ([3]; 3 months, 25° C./60% RH): 0.209 Abs@420 nm
Colour ([3]; 3 months, 40° C./75% RH): 0.879 Abs@420 nm
Colour ([3]; Initial): 0.017 Abs@420 nm
Known Related Substances HN33177 ([4]; 1 month, 25° C./60% RH): 0.76%
Known Related Substances HN67003 ([4]; 1 month, 25° C./60% RH): 0.17%
Known Related Substances HN75083 ([4]; 1 month, 25° C./60% RH): 0.05%
M6G Assay, Anhydrous basis ([4]; 1 month, 25° C./60% RH): 86.66 % w/w
M6G Assay, As is basis ([4]; 1 month, 25° C./60% RH): 80.27 % w/w
M6G Assay, Corrected for the salt form ([4]; 1 month, 25° C./60% RH): 97.56 % w/w
Total Known ([4]; 1 month, 25° C./60% RH): 0.98%
Total Related Substances ([4]; 1 month, 25° C./60% RH): 1.39%
Total Unknown ([4]; 1 month, 25° C./60% RH): 0.41%
Known Related Substances HN33177 ([4]; 1 month, 40° C./75% RH): 0.65%
Known Related Substances HN67003 ([4]; 1 month, 40° C./75% RH): 0.94%
Known Related Substances HN75076 ([4]; 1 month, 40° C./75% RH): 0.03%
Known Related Substances HN75083 ([4]; 1 month, 40° C./75% RH): 0.03%
Known Related Substances Morphine ([4]; 1 month, 40° C./75% RH): 0.12%
M6G Assay, Anhydrous basis ([4]; 1 month, 40° C./75% RH): 83.28 % w/w
M6G Assay, As is basis ([4]; 1 month, 40° C./75% RH): 77.07 % w/w
M6G Assay, Corrected for the salt form ([4]; 1 month, 40° C./75% RH): 93.75 % w/w
Total Known ([4]; 1 month, 40° C./75% RH): 1.77%
Total Related Substances ([4]; 1 month, 40° C./75% RH): 4.80%
Total Unknown ([4]; 1 month, 40° C./75% RH): 3.03%
Known Related Substances HN33177 ([4]; 1 month, 60° C.): 0.50%
Known Related Substances HN67003 ([4]; 1 month, 60° C.): 1.20%
Known Related Substances HN75076 ([4]; 1 month, 60° C.): 0.14%
Known Related Substances HN75083 ([4]; 1 month, 60° C.): 0.02%
Known Related Substances Morphine ([4]; 1 month, 60° C.): 0.32%
M6G Assay, Anhydrous basis ([4]; 1 month, 60° C.): 80.36 % w/w
M6G Assay, As is basis ([4]; 1 month, 60° C.): 76.46 % w/w
M6G Assay, Corrected for the salt form ([4]; 1 month, 60° C.): 90.47 % w/w
Total Known ([4]; 1 month, 60° C.): 2.18%
Total Related Substances ([4]; 1 month, 60° C.): 6.09%
Total Unknown ([4]; 1 month, 60° C.): 3.91%
Known Related Substances HN33177 ([4]; 3 months, 25° C./60% RH): 0.52%
Known Related Substances HN67003 ([4]; 3 months, 25° C./60% RH): 0.58%
Known Related Substances HN75083 ([4]; 3 months, 25° C./60% RH): 0.06%
Known Related Substances Morphine ([4]; 3 months, 25° C./60% RH): 0.04%
M6G Assay, Anhydrous basis ([4]; 3 months, 25° C./60% RH): 85.11 % w/w
M6G Assay, As is basis ([4]; 3 months, 25° C./60% RH): 80.04 % w/w
M6G Assay, Corrected for the salt form ([4]; 3 months, 25° C./60% RH): 95.81 % w/w
Total Known ([4]; 3 months, 25° C./60% RH): 1.20%
Total Related Substances ([4]; 3 months, 25° C./60% RH): 3.55%
Total Unknown ([4]; 3 months, 25° C./60% RH): 2.35%
Known Related Substances HN33177 ([4]; 3 months, 40° C./75% RH): 0.50%
Known Related Substances HN67003 ([4]; 3 months, 40° C./75% RH): 1.68%
Known Related Substances HN75076 ([4]; 3 months, 40° C./75% RH): 0.40%
Known Related Substances Morphine ([4]; 3 months, 40° C./75% RH): 0.43%
M6G Assay, Anhydrous basis ([4]; 3 months, 40° C./75% RH): 78.73 % w/w
M6G Assay, As is basis ([4]; 3 months, 40° C./75% RH): 72.37 % w/w
M6G Assay, Corrected for the salt form ([4]; 3 months, 40° C./75% RH): 88.63 % w/w
Total Known ([4]; 3 months, 40° C./75% RH): 3.01%
Total Related Substances ([4]; 3 months, 40° C./75% RH): 9.94%
Total Unknown ([4]; 3 months, 40° C./75% RH): 6.93%
drop in assay compared to the initial values ([4]; 3 months, 40° C./75% RH): around 10%
Known Related Substances HN33177 ([4]; Initial): 0.76%
Known Related Substances HN67003 ([4]; Initial): 0.04%
Known Related Substances HN75083 ([4]; Initial): 0.05%
M6G Assay, Anhydrous basis ([4]; Initial): 88.28 % w/w
M6G Assay, As is basis ([4]; Initial): 83.61 % w/w
M6G Assay, Corrected for the salt form ([4]; Initial): 99.40 % w/w
Total Known ([4]; Initial): 0.85%
Total Related Substances ([4]; Initial): 0.85%
Total Unknown ([4]; Initial): 0.00%
